For series [1], the system named is core clock gene mRNAs in mouse liver. Nature of the series: Core clock gene mRNAs in liver after a single dose at peak or nadir of Cry1 expression. In kind it is in vivo. The conditions noted are these: single dose 50 mg/kg, liver 7.5 hours later. On the procedure:
For compounds that interact directly with the core clock mechanism, the time of dosing may be critical for maximizing their effects. […] The former (ZTO) is coincident with the peak of Cry1 and Bmal1 protein in mouse liver and the latter (ZT10) corresponds to the approximate nadir of Cry1 and Bmal1. Liver tissue was taken 7.5 hours later for each, and the samples were examined for core clock gene mRNAs by RT-qPCR.

The target in series [2] is FAD-binding domain of human CRY1 protein (hCRY1) (Homo sapiens (Human), UniProt Q16526). The series can be described thus: Thermal shift binding assay (differential scanning fluorimetry). As to conditions: purified hCRY1 FADBD, Sypro-Orange. On the procedure: Binding of compounds to the isolated FAD-binding domain of human CRY1 protein (hCRY1) was determined using a differential scanning fluorimetry (‘thermal shift’) assay (Pantoliano et al. (2001) J Biomol Screening 6, 429; Niesen et al. (2007) Nature Protocols 2, 2212). The FAD-binding domain of hCRY1 (amino acid residues 1-494) with a C-terminal Myc-DDK tag (FADBD), was produced by transient transfection of HEK293T cells (Catalog # CRL-3216, American Type Culture Collection) and purified by anti-FLAG affinity chromatography (Catalog # A2220, Sigma-Aldrich). FADBD (0.5 μg per well) was incubated with dilutions of compounds in DMSO (5% DMSO final concentration in reaction) in 17.5 μl Tris-buffered saline (TBS) for 10 minutes on ice, then 2.5 μl of 8× Sypro-Orange Dye (Life Technologies) was added to each well. Triplicate wells were assayed for each compound concentration. The melting temperatures were measured in an ABI7500 quantitative PCR instrument using the melt curve mode with a thermal profile of 2 minutes at 25° C., followed by a ramp rate of 1° C./minute up to 99° C. The melting temperature for each well was determined from the first derivative of the melt curve. The change in melting temperature (ΔTm) was obtained by subtraction of the melting temperature of the FADBD in 5% DMSO alone.

The nature of series [3]: Increasing dosages of Compound 72 for 7 days in db/db mice. In kind it is in vivo, mouse. The conditions noted are these: male, mouse, oral, around 8 hours after last dose. From the text:
(§1) Significance was accepted when p<0.05.

Series [4] deals with db/db mouse model of type II diabetes. The series is described as above. The series is classed as in vivo.
From the text: as §1

Series [5] is described as follows: 7 day dosing, glucose metabolism, insulin and compound levels in db/db mice. In kind it is in vivo, mouse. As to conditions: male, mouse, around 8 hours after last dose, 50 mg/kg PO 7 days.
From the text: as §1

In series [6] the test system is cortisone-induced insulin resistance in Sprague Dawley rats. The series can be described thus: Cortisone induced insulin resistance in rats. The series is classed as in vivo, rat. As to conditions: cortisone 30 mg/kg sc + 50 mg/kg po. On the procedure:
Animals were dosed with cortisone (30 mg/kg sc qd) in combination with test compounds for 6 days and then terminated 27 hours after the final dose of cortisone. A reference standard (Mifepristone) was also included. Cortisone 21-acetate (Sigma C-3130) was supplied by RenaSci and administered using a dose volume of 5 ml/kg via the subcutaneous route as a fine suspension in 1% methylcellulose. […] Mifepristone (Sigma M8046) was provided by RenaSci.
Glucose and insulin determinations were performed on plasma samples obtained from a tail vein bleed taken after a 12 h fast, approximately 27 h after the last cortisone dose. Animals were then terminated and a terminal (cardiac) blood sample taken from which plasma was prepared.
Thirty four male Sprague Dawley rats (weight range 200-250 g) were ordered from Charles River, Margate, Kent, UK. […] Subsequently, animals underwent a 3 day baseline period during which they were dosed once daily with vehicle at t=0 h (07:00). […] Body weight was recorded immediately before dosing began at 07:00 (t=0 h).
On Day 6 of dosing rats were fasted for 12 h beginning at 22:30 (timed to coincide with the Day 7 termination). […] At 10:30 on Day 7, 27 h after the final dose of cortisone, a blood sample (300 μl) was taken from the lateral tail vein into tubes containing EDTA (Sarstedt 16.444). The blood was centrifuged and resultant plasma aliquot stored at −75° C. The animals were euthanized by CO2 asphyxiation followed by cervical dislocation. Terminal blood (approximately 10 ml) was collected by cardiac puncture into tubes containing EDTA (Sarstedt 5 ml 32.332) and then centrifuged and plasma stored at −75° C. The tail vein plasma was analyzed for glucose (n=2) using a commercial clinical reagent (Thermoelectron Infinity glucose reagent (TR15421) and for insulin (n=1) using the Mercodia ultrasensitive rat insulin rat ELISA (10-1251-10).
Plasma glucose and insulin were analyzed by robust regression or general linear model with treatment as a factor and bleeding order and baseline body weight as covariates. A log transformation was used if appropriate. Appropriate multiple comparison tests (two-tailed) were used to determine significant differences from the vehicle group and from the Cortisone group. P<0.05 was considered to be statistically significant.

Sequence of FAD-binding domain of human CRY1 protein (hCRY1) (Q16526 1-494): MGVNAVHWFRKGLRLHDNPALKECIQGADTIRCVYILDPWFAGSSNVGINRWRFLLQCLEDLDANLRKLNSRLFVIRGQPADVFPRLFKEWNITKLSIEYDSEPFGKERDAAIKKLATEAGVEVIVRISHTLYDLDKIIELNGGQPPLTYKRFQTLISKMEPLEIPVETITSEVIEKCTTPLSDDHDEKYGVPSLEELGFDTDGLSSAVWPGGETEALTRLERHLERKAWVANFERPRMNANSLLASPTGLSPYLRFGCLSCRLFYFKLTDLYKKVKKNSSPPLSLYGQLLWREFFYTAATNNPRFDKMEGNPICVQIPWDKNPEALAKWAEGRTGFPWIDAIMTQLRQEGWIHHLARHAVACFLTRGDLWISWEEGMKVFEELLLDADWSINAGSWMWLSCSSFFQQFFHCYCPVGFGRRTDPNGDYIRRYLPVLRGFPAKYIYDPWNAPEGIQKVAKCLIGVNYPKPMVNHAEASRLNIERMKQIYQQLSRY

Regarding `O=C1NCCN1CC(O)Cn1c2ccc(F)cc2c2cc(F)ccc21` (stereo not drawn) [Compound 72, 1-(3-(3,6-difluoro-9H-carbazol-9-yl)-2-hydroxypropyl)imidazolidin-2-one], the “impact on clock mRNAs, dosing at peak (ZT0) vs nadir (ZT10)” value in series [1] is reported as “greater relative impact on the clock mRNAs at the peak compared to the nadir”. Besides, the “change in melting temperature (ΔTm)” value in series [2] is “dose-dependent increase”. The concentration at 8 h was 120 nM in series [3] (liver, 10 mg/kg, read-out: compound level in liver); 780 nM in series [3] (liver, 50 mg/kg, read-out: compound level in liver); 1810 nM in series [3] (liver, 100 mg/kg, read-out: compound level in liver); 90 nM in series [3] (plasma, 10 mg/kg, read-out: compound level in plasma); 570 nM in series [3] (plasma, 50 mg/kg, read-out: compound level in plasma); 1220 nM in series [3] (plasma, 100 mg/kg, read-out: compound level in plasma). Also, the concentration at 8 h in series [5] (liver, read-out: compound level in liver) was 670 nM; in series [5] (plasma, read-out: compound level in plasma), 530 nM. The HOMA-IR in series [4] (10 mg/kg QD PO 7 days) is recorded as 172.7+/−16.61 units; in series [4] (50 mg/kg QD PO 7 days) it was 149.2+/−16.49 units; in series [4] (100 mg/kg QD PO 7 days) it was 111.9+/−9.02 units; in series [6] (insulin resistant rats), 56.94+/−11.18 units. Also, the fasting blood glucose in series [4] (10 mg/kg QD PO 7 days) was 503.5 ± 49.68 mg/dL; in series [4] (50 mg/kg QD PO 7 days), 402.8 ± 25.25 mg/dL; in series [4] (100 mg/kg QD PO 7 days), 420.7 ± 26.44 mg/dL. Moreover, the “glucose AUC from OGTT” value in series [4] (10 mg/kg QD PO 7 days) is reported as 39771+/−4244; in series [4] (50 mg/kg QD PO 7 days), 35527+/−3215; in series [4] (100 mg/kg QD PO 7 days), 28499+/−3079. Also, the “plasma insulin at t=0” value in series [4] (100 mg/kg QD PO 7 days) was determined as 4.63 ± 0.17 ng/mL. For the same compound, in series [4] (100 mg/kg QD PO 7 days), the “reduction of HOMA-IR compared to vehicle control” value was found to be 34%. The fasted plasma glucose in series [6] (rats) came to 8.55 ± 0.3 mM. The fasted plasma insulin in series [6] (rats) was 5.24 ± 1.1 ng/mL.

For the origin of these results see patent US10214507B2, “Carbazole-containing amides, carbamates, and ureas as cryptochrome modulators” (Reset Therapeutics, Inc., priority 2014, dated 2019).
